Measured values taken from patent US10370642B2, “Hematopoietic progenitor cell populations having affinity for E-selectin / L-selectin” (priority 2000, dated 2019).

How the values were obtained:
Format in all cases: cell-based, human
KG1a cells [1] = assay: L-selectin ligand activity of treated KG1a cells, parallel-plate flow chamber; conditions: thoracic duct lymphocytes, shear stress 4.4 dynes/cm^2
Description: Leukocyte tethering and rolling on human HC monolayers was visualized by video microscopy in real time using the parallel-plate flow chamber prepared in the following manner. Prior to experimentation, leukocytes were washed twice in HBSS and then suspended at 10^7/ml in HBSS/10 mM HEPES/2mMCaCl2 (H/H/Ca^++). […] To prepare human HC monolayers (100% confluent), suspensions of HCs (KG 1a, HL60, RPMI 8402, K562) at 2×10^6/ml RPMI-1640 without Na+Bicarbonate/2% FBS were seeded in 6-well plates at 5×10^6/well, centrifuged to layer cells then fixed in 3% glutaraldehyde. Reactive aldehyde groups were blocked in 0.2M lysine, and plated cells were suspended H/H/Ca^++. To assess the dependence of binding by sialic acid residues on L-selectin ligands, cells were pretreated with Vibrio cholerae neuraminidase (0.1 U/mlH/H/Ca^++ for lhr at 37° C.). To examine the contribution of sialomucins (including PSGL-1) and PSGL-1 alone, OSGE (60 μg/ml H/H/Ca^++ for lhr at 37° C.) or mocarhagin (10 μg/ml for 20 min at 37° C.) treatments were performed, respectively. […] The number of leukocytes rolling in one frame of five independent fields under 200× magnification at shear stress of 0.2, 0.4, 0.8, 2.2, 4.4, 8.8, 17.6 and 26.4 dynes/cm^2 were quantified. A minimum of 3 experiments was performed over the entire range of shear stress and results were expressed as the mean±standard deviation.

KG1a cells [2] = assay: CHO-E cell rolling on glutaraldehyde-fixed KG1a monolayers; conditions: 2.8 dynes/cm^2; EDTA 5 mM; HECA 452 50 μg/ml
Description: (§1) E-selectin-mediated adhesive interactions, under defined shear stress, were examined between hematopoietic cell monolayers and suspensions of CHO-E (Chinese hamster ovary cells stably transfected with full-length cDNA encoding human E-selectin) in flow. CHO-E and empty vector constructs (CHO-Mock) were maintained in MEM 10% FBS/1% Penicillin/Streptomycin (Life Technologies, Inc.) and HAM's F-12 (Cellgro, Inc.)/5% FCS/1% Penicillin/Streptomycin, respectively. CHO-E cell tethering and rolling on hematopoietic cell monolayers was visualized by video microscopy in real time using the parallel-plate flow chamber. […] To prepare hematopoietic cell monolayers>90% confluent, suspensions of cells (KG1a, HL60, K562, or RPMI 8402) at 2×10^6/ml RPMI1640 without NaBicarbonate/2% FBS were cytocentrifuged in […] plates at 5×10^6/well and then fixed in 3% glutaraldehyde. Reactive aldehyde groups were blocked in 0.2M lysine, and plated cells were suspended H/H/Ca++. […] The number of CHO-E/Mock cell rolling on each monolayer was measured in one frame of five independent fields under 10× magnification from multiple experiments. A minimum of 3 experiments was performed and results were expressed as the mean±standard deviation.

HL60 cells = assay: CHO-E cell rolling on glutaraldehyde-fixed HL60 monolayers; conditions: 2.8 dynes/cm^2; EDTA 5 mM; HECA 452 50 μg/ml
Description: as §1

## neuraminidase: Vibrio cholerae neuraminidase, cleaves terminal sialic acids
KG1a cells [1]
  % Control Mean Lymphocyte Binding: 0.3 % Control
KG1a cells [2]
  CHO-E cell rolling / E-selectin ligand activity of KG1a cells: completely inhibited
HL60 cells
  CHO-E cell rolling / E-selectin ligand activity of HL60 cells: completely inhibited
